Laboratory results reported in publication PMC12216609, “Inhibitors of eIF1A-ribosome interaction unveil uORF-dependent regulation of translation initiation and antitumor and antiviral effects” (The EMBO Journal, 2025).
pIC50: −log10 of the molar value. Several values for one entry are separate records, joined by “and”; a condition that tells them apart may be missing. Equal entries are not always repeated. Where two headings read alike, the source gives them in different places.

Legend:
[1] = target: T1, eIF1A without NTT (Homo sapiens, UniProt P47813); assay: Fluorescence binding assay with NTT-truncated eIF1A; details: for fluorescence ratio, eIF1A Δ NTT: background-corrected, relative to DMSO or lowest 1Ai concentration, replicate columns; for pIC50: eIF1A Δ NTT, from the titration data, read-out: IC50 (eIF1A Δ NTT titration block); for IC50: summary table, fluorescence binding assay, read-out: IC50 concentration (µM), NTT truncation
T1 construct: His-bdSUMO (cleaved yes); made in house; host or cells: E. coli (BL-21)

[2] = target: T2, eIF1A without CTT (Homo sapiens, UniProt P47813); type: binding; details: for fluorescence ratio, eIF1A Δ CTT: background-corrected, relative to DMSO or lowest 1Ai concentration, replicate columns; for pIC50: eIF1A Δ CTT, from the titration data, read-out: IC50 (eIF1A Δ CTT titration block); for IC50: summary table, fluorescence binding assay, read-out: IC50 concentration (µM), CTT truncation
T2 construct: His-bdSUMO (cleaved yes); made in house; host or cells: E. coli (BL-21)

[3] = system: CUG/GUG vs AUG start codon luciferase reporters in HEK293T cells; assay: Near-cognate AUG starting codon fidelity reporter assay (GUG, CUG vs AUG); type: cell-based; details: for CUG vs AUG (%): CUG start codon reporter relative to AUG reporter (AUG = 100); for CUG vs AUG (%) / GUG vs AUG (%): compound at 20uM (summary head), single-experiment calculation; for GUG vs AUG (%): GUG start codon reporter relative to AUG reporter (AUG = 100); for average CUG and GUG / average CUG and GUG relative to DMSO / CUG Average / GUG Average: NUG experiment; for CUG Average: CUG vs AUG reporter; for GUG Average: GUG vs AUG reporter; for NUG (Final data, Fig. 1E): average CUG and GUG relative to DMSO, 20 µM overnight; for GUG vs AUG data (%) / GUG vs AUG (%) Average: compound at 20uM; for GUG vs AUG data (%): individual repeat; for GUG vs AUG (%) Average: summary average of repeats, DMSO control average […]
[4] = system: IRF7 5'UTR firefly luciferase reporter in HEK293T cells; details: for Reference vs IRF7 (Final data, Fig. 1E): 1/Result, relative to DMSO; for Reference vs IRF7 (Final data, Fig. 1E) / LONG (summary - All), normalized to DMSO / SHORT (summary - All), normalized to DMSO / average ( long vs short ratio): 20 µM; for LONG (summary - All), normalized to DMSO: Long reporter; for LONG (summary - All), normalized to DMSO / SHORT (summary - All), normalized to DMSO: individual replicates, outliers excluded, DMSO = 1; for SHORT (summary - All), normalized to DMSO: Short reporter; for Long 5'UTR reporter luciferase activity, normalized to DMSO (=1), single replicates: compound at 20 µM, left data block (Long), source data of Fig 1C; for average ( long vs short ratio): summary - All;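 for all read-outs here: luciferase signal corrected by a co-transfected GFP reporter for transfection efficiency, read after overnight compound exposure, with Long and Short reporters differing in 5'UTR length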
Experimental: For the effect on ribosomal scanning, we used two firefly luciferase reporter genes that differ in their 5'UTR length (Fig. 1C). […] Cells were transfected with these reporters along with a GFP reporter gene used to normalize transfection efficiency. After an overnight 1Ai or DMSO (vehicle control) exposure, luciferase and GFP expression were measured, and normalized activity was determined.
For the reference vs IRF7 5'UTR luciferase reporter assay, HEK239T cells in a 12-well plate were transfected with the previously described IRF7 5'UTR or reference firefly luciferase reported genes (Sehrawat et al, [2019]) (100 ng/well) together with GFP (20 ng/well) that served as an internal control by CaCl2 transfection. After 6 h, half of the growth medium was replaced with a medium containing the different compounds, reaching a final concentration of 20 µM. Twenty-four hours after transfection, transfection efficiency was evaluated using GFP fluorescence intensity (Cytation 5, ex/em: 470/525). Cells were harvested in 50 µL Reported lysis buffer (RLB) and put on a shaker for 10 min. From each well 5 µL were taken in duplicates and tested by luminometer.

T2 sequence (P47813 1-114 limits assumed): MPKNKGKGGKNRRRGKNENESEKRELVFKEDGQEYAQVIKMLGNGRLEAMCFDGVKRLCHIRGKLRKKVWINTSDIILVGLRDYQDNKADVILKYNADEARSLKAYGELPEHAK
T1 sequence (P47813 31-144 limits assumed): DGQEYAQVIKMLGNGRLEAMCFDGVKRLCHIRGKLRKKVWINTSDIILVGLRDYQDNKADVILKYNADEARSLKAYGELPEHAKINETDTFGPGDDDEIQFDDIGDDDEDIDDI

Row | Structure (SMILES) | fluorescence ratio, eIF1A Δ NTT ([1]; 1Ai conc. 0.25 uM) | fluorescence ratio, eIF1A Δ NTT ([1]; 1Ai conc. 0.5 uM) | fluorescence ratio, eIF1A Δ NTT ([1]; 1Ai conc. 1 uM) | fluorescence ratio, eIF1A Δ NTT ([1]; 1Ai conc. 2 uM) | fluorescence ratio, eIF1A Δ NTT ([1]; 1Ai conc. 4 uM) | fluorescence ratio, eIF1A Δ NTT ([1]; 1Ai conc. 8 uM) | fluorescence ratio, eIF1A Δ NTT ([1]; 1Ai conc. 16 uM) | fluorescence ratio, eIF1A Δ NTT ([1]; 1Ai conc. 32 uM) | fluorescence ratio, eIF1A Δ NTT ([1]; 1Ai conc. 64 uM) | fluorescence ratio, eIF1A Δ NTT ([1]; 1Ai conc. 256 uM) | fluorescence ratio, eIF1A Δ CTT ([2]; 1Ai conc. 0.25 uM) | fluorescence ratio, eIF1A Δ CTT ([2]; 1Ai conc. 0.5 uM) | fluorescence ratio, eIF1A Δ CTT ([2]; 1Ai conc. 1 uM) | fluorescence ratio, eIF1A Δ CTT ([2]; 1Ai conc. 2 uM) | fluorescence ratio, eIF1A Δ CTT ([2]; 1Ai conc. 4 uM) | fluorescence ratio, eIF1A Δ CTT ([2]; 1Ai conc. 8 uM) | fluorescence ratio, eIF1A Δ CTT ([2]; 1Ai conc. 16 uM) | fluorescence ratio, eIF1A Δ CTT ([2]; 1Ai conc. 32 uM) | fluorescence ratio, eIF1A Δ CTT ([2]; 1Ai conc. 64 uM) | fluorescence ratio, eIF1A Δ CTT ([2]; 1Ai conc. 256 uM) | further results
1 | Cc1ccc(C(=O)c2cc(O)c(O)c([N+](=O)[O-])c2)cc1 [1Ai-5576] | 0.8023 and 0.892 | 0.7712 and 0.8267 | 0.7599 and 0.8722 | 0.7825 and 0.8608 | 0.6215 and 0.8636 | 0.5932 and 0.9091 | 0.5932 and 0.7358 | 0.5395 and 0.6733 | 0.7175 and 0.7159 | 0.4605 and 0.6165 | 0.7373 and 0.785 | 0.8173 and 0.7741 | 0.744 and 0.7009 | 0.6013 and 0.6558 | 0.5053 and 0.5218 | 0.4227 and 0.4252 | 0.332 and 0.3364 | 0.26 and 0.2352 | 0.208 and 0.1745 | 0.1973 and 0.1667 | binding to NTT-truncated eIF1A [1]: significantly decreased; pIC50 [2]: 5.27; IC50 [2]: 5.4 µM; CUG vs AUG (%) [3]: 5.985%; GUG vs AUG (%) [3]: 2.005%; average CUG and GUG [3]: 6.465; average CUG and GUG relative to DMSO [3]: 1.433; CUG Average [3]: 9.471; GUG Average [3]: 3.46; NUG (Final data, Fig. 1E) [3]: 1.433; GUG vs AUG data (%) [3]: 2.91% and 4.78% and 2.69%; GUG vs AUG (%) Average [3]: 3.46%; Reference vs IRF7 (Final data, Fig. 1E) [4]: 1.896; LONG (summary - All), normalized to DMSO [4]: 0.11 and 0.20 and 0.17; SHORT (summary - All), normalized to DMSO [4]: 0.23 and 0.53 and 0.25 and 0.22; Long 5'UTR reporter luciferase activity, normalized to DMSO (=1), single replicates [4]: 0.1126 and 0.2 and 0.1668 and 0.166; average ( long vs short ratio) [4]: 0.527
2 | CCOc1cc(C(=O)Nc2ccc(Cl)c(-c3nc4ccccc4[nH]3)c2)cc(OCC)c1OCC [1Ai-5677] | 1 | 1 and 0.9156 | 1.054 and 0.8819 | 0.997 and 1.025 | 0.8973 and 1.017 | 0.994 and 0.865 | 1.091 and 0.9072 | 1.205 and 0.9494 | 1.39 and 0.8945 | 1.882 and 1.228 | 0.9518 and 1.125 | 0.9965 and 1.042 | 1.031 and 1.16 | 1.066 and 1.079 | 1.073 and 1.131 | 1.007 and 1.089 | 1.119 and 1.152 | 1.196 and 1.27 | 1.276 and 1.31 | 1.365 and 1.556 | binding to NTT-truncated eIF1A [1]: significantly decreased; pIC50 [1]: 3.96; IC50 [1]: 109 µM; pIC50 [2]: 4.10; IC50 [2]: 79.9 µM; average CUG and GUG [3]: 7.022; average CUG and GUG relative to DMSO [3]: 1.557; CUG Average [3]: 10.2182; GUG Average [3]: 3.825; NUG (Final data, Fig. 1E) [3]: 1.557; GUG vs AUG data (%) [3]: 5.33% and 3.23% and 3.12% and 3.62%; GUG vs AUG (%) Average [3]: 3.82%; Reference vs IRF7 (Final data, Fig. 1E) [4]: 1.223; LONG (summary - All), normalized to DMSO [4]: 0.42 and 0.28 and 0.29 and 0.61; SHORT (summary - All), normalized to DMSO [4]: 0.22 and 0.81 and 0.72 and 0.21; Long 5'UTR reporter luciferase activity, normalized to DMSO (=1), single replicates [4]: 0.4235 and 0.2817 and 0.2949 and 0.6069; average ( long vs short ratio) [4]: 0.817
3 | Cc1cc(-n2c(C)cc(-c3csc(N)n3)c2C)no1 [1Ai-6464] | 0.925 and 0.9309 | 1.072 and 0.9557 | 1.214 and 0.9982 | 1.067 and 1.004 | 1.128 and 0.9504 | 1.103 and 0.7642 | 0.8611 and 0.7181 | 0.7861 and 0.6206 | 0.6389 and 0.5018 | 0.4333 and 0.2642 | 0.827 and 0.948 | 0.8882 and 1.055 | 0.8515 and 1.0065 | 0.8637 and 0.9317 | 0.8683 and 0.9724 | 0.6692 and 0.7821 | 0.7305 and 0.6862 | 0.608 and 0.5594 | 0.4364 and 0.4829 | 0.1547 and 0.1772 | pIC50 [1]: 4.43; IC50 [1]: 37 µM; pIC50 [2]: 4.45; IC50 [2]: 35.4 µM; CUG vs AUG (%) [3]: 6.312%; GUG vs AUG (%) [3]: 1.439%; average CUG and GUG [3]: 3.765; average CUG and GUG relative to DMSO [3]: 0.8347; CUG Average [3]: 6.092; GUG Average [3]: 1.4368; NUG (Final data, Fig. 1E) [3]: 0.835; GUG vs AUG data (%) [3]: 1.40% and 1.10% and 1.81% and 1.45%; GUG vs AUG (%) Average [3]: 1.44%; Reference vs IRF7 (Final data, Fig. 1E) [4]: 2.824; LONG (summary - All), normalized to DMSO [4]: 0.0351 and 0.33 and 0.45 and 0.34; SHORT (summary - All), normalized to DMSO [4]: 0.16 and 1.35 and 0.67 and 1.06; average ( long vs short ratio) [4]: 0.354
